Laboratory results as given in patent US8246966B2, “Trypanosome microsome system and uses thereof” (priority 2006, dated 2012).

Assays:
[1] = tested on: T. brucei microsomes (TbRM); test: Post-translational import of VSG—11786 into T. brucei microsomes, proteinase K protection (Example 2); type: biochemical, Trypanosoma brucei; conditions: for effect on protein import into TbRM (in words): VSG—11786 substrate
Protocol: FIGS. 2A and 2B show the effect of protein translocation inhibitors on TbRM. FIG. 2A presents the protocol used for import of VSG—117500. In FIG. 2B, SG—117500 mRNA was translated in rabbit reticulocyte lysate with 1.5 equivalents T. brucei cytosol (pretreated with MAL3-101 (0.3 μM), MAL3-51 (1 μM), CJ21,058 (20 μM) or equisetin (50 μM)) for 60 minutes. The reaction mixtures were treated with cycloheximide (50 μg/ml, final concentration) and incubated with TbRM (one equivalent). The mixture was incubated for 60 minutes at 37° C. and digested with proteinase K digestion (30 μg/ml, final concentration) for 60 minutes on ice. Proteins were resolved by SDS-PAGE and detected by phosphorimaging. In lanes 1 and 2, TbRM were pretreated with DMSO. Lane 1 is untreated VSG—117500 with TbRM; lane 2 is VSG—117500 incubated with TbRM and treated with proteinase K. In lanes 3 and 4 TbRM were pretreated with MAL3-101. Lane 3 is VSG—117500 incubated with TbRM; lane 4 is VSG—117500 incubated with TbRM and then treated with proteinase K. In lanes 5 and 6 TbRM pretreated with MAL3-51. Lane 5 is VSG—117500 incubated with TbRM; lane 6 is VSG—117500 incubated with TbRM and then treated with proteinase K. In lanes 7 and 8 TbRM were pretreated with CJ-21,058). Lane 7 is VSG—117500 incubated with TbRM; lane 8 is VSG—117500 incubated with ThRM and then treated with proteinase K. In lanes 9 and 10 TbRM were pretreated with equisetin). Lane 9 is VSG—117500 incubated with TbRM; lane 10 is VSG—117500 incubated with TbRM and then treated with proteinase K.
Protein import into TbRM. Two micrograms (μg) of RNA encoding a truncated substrate (e.g., VSG—11786) was translated in […] of a reaction mixture containing 20 μl rabbit reticulocyte lysate, 60 μM amino acid mixture (-Met, -Cys), and 2.4 μCi [^35S]Promix. The reaction was incubated at 37° C. for 15 minutes. Cycloheximide (50 μg/ml, final concentration) was used to stop further translation, and the mixture was divided into two portions. T. brucei microsomes (ThRM) (1 equivalent) was added to one aliquot, and to the other portion an equal volume of RM buffer was added. The reactions were incubated at 37° C. for 45 minutes for protein import into TbRM to take place post-translationally.
Each reaction mixture was divided into three (each 10 μl) and treated with one of the following on ice for one hour: (I) RM buffer; (ii) 30 μg/ml protease K; (iii) nonidet P-40 (NP-40) (2%, final concentration) followed by protease K (30 μg/ml, final concentration). PMSF (20 mM final concentration) was added to stop protease K digestion. Samples were precipitated with an equal volume of cold (NH4)2SO4 sulphate (saturated) and resolved by sodium dodecyl sulfate-polyacrylamide gel electrophoresis (SDS-PAGE) (4% total acrylamide, 3% cross linker in tricene-HCl system) (Fekkes et al., 1998, Mol Microbiol; 29(5):1179-90). The gels were dried, and radioactive polypeptides detected with a phosphorimager (Molecular Imager FX, (BioRad). Data bands were quantitated with QuantityOne software (BioRad), and graphs were plotted with DeltaGraph (Red Rock software).
A small molecule inhibitor of Hsp70-Hsp40 interaction blocks protein translocation into TbRM. Post-translational ER protein translocation in Saccharomyces cerevisiae and E. coli requires cytosolic chaperones. In the yeast S. cerevisiae, for example, Ssa1p (Hsp70) and co-chaperone Ydj1p (Hsp40) (Becker et al., 1996, Mol Cell Biol; 16(8):4378-86; Ngosuwan et al., 2003, J Biol Chem; 278(9):7034-42; and McClellan et al., 1998, Mol Biol Cell; 9(12): 3533-45) as well as Kar2p/BiP stimulate post-translational protein import (Lyman and Schekman, 1995, J Cell Biol; 131(5):1163-71; Panzner et al., 1995, Cell; 81(4):561-70; and Holkeri et al., 1998, J Cell Sci; 111:749-757). […]

[2] = tested on: Blood stream form T. brucei CA427; test: Trypanocidal activity against cultured blood stream form T. brucei (Example 2); type: cell-based, Trypanosoma brucei; conditions: for IC50: read-out: concentration at which fifty percent of parasites were killed (IC50)
Protocol: Blood stream form T. brucei CA427 were grown in HMI-9 media to the cell density of 10^6. The cells were then transferred to 96 well plates with the addition of different concentrations of MAL3-101, MAL3-51, CJ-21,058 or equisetin. In controls, DMSO was added. Cell density was calculated at the end of 24 hours, and the graph was plotted.
Cell culture. Blood stream form T. brucei CA427 was cultured in HMI-9 medium (Hirumi and Hirumi, 1994, Parasitol Today; 10:80-84) to a maximum density of 10^6/ml. For use in drug sensitivity studies, cells were seeded at […], and one hundred microliters added to each well of a 96-well plate, with or without test compounds at stated concentrations, as discussed in Brief Descriptions of FIGS. 1-4. In controls, DMSO, the solvent for the compounds, was added. Cells were counted after 24 or 48 hours, using a hemocytometer, and the data graphed. All experiments were performed in triplicates.

Compound | inhibition of translocation of VSG—11786 into TbRM ([1]; CJ-21,058 20 μM) | effect on protein import into TbRM (in words) [1] | IC50 ([2]; cultured T. brucei) | inhibition of translocation of VSG—11786 into TbRM ([1]; equisetin 25 μM) | VSG—11786 translocated into TbRM (protection from proteinase K digestion) ([1]; MAL3-101 present (0.3 μM in FIG. 2B legend), DMSO control 80%) | trypanocidal activity (in words) [2] | concentration at which one hundred percent of parasites were killed (IC100) ([2]; cultured T. brucei)
C/C=C/C1C(C)=CC2CC(C)CCC2C1(C)/C(O)=C1/C(=O)C(CO)N(C)C1=O (centres unmarked) [CJ-21,058] | 95% | inhibited import | 7 µM | – | – | – | –
C/C=C/[C@@H]1C=C[C@@H]2C[C@H](C)CC[C@H]2[C@]1(C)/C(O)=C1/C(=O)[C@H](CO)N(C)C1=O [equisetin] | – | inhibited import | 3.3 µM | 95% | – | – | –
CCCCCCN(C(=O)CCCCCN1C(=O)NC(c2ccc(-c3ccccc3)cc2)C(C(=O)OCc2ccccc2)=C1C)C(C(=O)NCCCC)c1ccc(OCC(=O)OC)c(C(=O)OC)c1 (centres unmarked) [MAL3-101] | – | blocked import | 0.125 µM | – | 13% | killed T. brucei at sub-micromolar level | 500 nM
